These results are taken from US6670353B2, “Oxime-group containing oestrone sulphatase inhibitors” (Sterix Limited, priority 1997, dated 2003).

In data set [1] the target is T1, Steroid sulphatase (oestrone sulphatase) (Homo sapiens, UniProt P08842).
T1 construct: Sulphatase-positive human placenta from normal term pregnancies; from tissue; host or cells: human term placenta (2000 g supernatant / microsomes)
T1 sequence (P08842 22-583): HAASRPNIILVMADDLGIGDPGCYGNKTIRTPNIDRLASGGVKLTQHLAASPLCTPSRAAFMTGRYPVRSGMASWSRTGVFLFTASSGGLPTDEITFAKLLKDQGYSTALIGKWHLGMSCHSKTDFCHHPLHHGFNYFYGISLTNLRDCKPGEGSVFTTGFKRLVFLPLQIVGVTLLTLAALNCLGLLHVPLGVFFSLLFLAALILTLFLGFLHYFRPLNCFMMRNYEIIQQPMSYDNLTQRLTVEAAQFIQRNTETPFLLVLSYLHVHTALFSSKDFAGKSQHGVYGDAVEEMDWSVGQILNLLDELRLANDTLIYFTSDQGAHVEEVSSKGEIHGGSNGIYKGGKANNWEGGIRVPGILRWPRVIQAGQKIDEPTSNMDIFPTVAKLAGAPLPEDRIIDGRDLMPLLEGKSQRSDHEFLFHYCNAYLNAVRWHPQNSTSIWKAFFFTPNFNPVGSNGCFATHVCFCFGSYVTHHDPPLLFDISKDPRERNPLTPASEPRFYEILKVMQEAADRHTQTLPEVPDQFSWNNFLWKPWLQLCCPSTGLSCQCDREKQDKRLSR
Nature of the data set: Inhibition of steroid sulphatase activity in placental microsomes. Type of data set: biochemical. Particulars: read-out: % INHIBITION (mean ± S.D., n = 3) PLACENTAL MICROSOMES
Here is the method: (§1) In the examples reference is made to steroid sulphatase inhibition. This is determined according to the teachings of PCT/GB92/01587 wherein the ability of compounds to inhibit oestrone sulphatase activity is assessed using either intact MCF-7 breast cancer cells or placental microsomes. For ease of reference, those teachings are repeated here as Example 1.
Sulphatase-positive human placenta from normal term pregnancies (Obstetric Ward, St. Mary's Hospital, London) were thoroughly minced with scissors and washed once with cold phosphate buffer (pH 7.4, 50 mM) then re-suspended in cold phosphate buffer (5 ml/g tissue). Homogenisation was accomplished with an Ultra-Turrax homogeniser, using three 10 second bursts separated by 2 minute cooling periods in ice. Nuclei and cell debris were removed by centrifuging (4° C.) at 2000 g for 30 minutes and portions (2 ml) of the supernatant were stored at −20° C. The protein concentration of the supernatants was determined by the method of Bradford (Anal. Biochem., 72, 248-254 (1976)).
Incubations (1 ml) were carried out using a protein concentration of […], substrate concentration of […] [6,7-^3H]oestrone-3-sulphate (specific activity 60 Ci/mmol from New England Nuclear, Boston, Mass., U.S.A.) and an incubation time of 20 minutes at 37° C. Eight concentrations of the compounds to be tested may be employed: 0 (i.e. control); 0.05 mM; 0.1 mM; 0.2 mM; 0.4 mM; 0.6 mM; 0.8 mM; 1.0 mM. After incubation each sample was cooled and the medium (1 ml) was pipetted into separate tubes containing [^14C]oestrone (7×10^3 dpm) (specific activity 97 Ci/mmol from Amersham International Radiochemical Centre, Amersham, U.K.). The mixture was shaken thoroughly for 30 seconds with toluene (5 ml). […] A portion (2 ml) of the organic phase was removed, evaporated and the ^3H and ^14C content of the residue determined by scintillation spectrometry. The mass of oestrone-3-sulphate hydrolysed was calculated from the ^3H counts obtained (corrected for the volumes of the medium and organic phase used, and for recovery of [^14C]oestrone added) and the specific activity of the substrate.

Data set [2] concerns the target T2, Steroid sulphatase (Steryl Sulphatase EC 3.1.6.2) (Homo sapiens, UniProt P08842).
T2 construct: endogenous in cells; host or cells: MCF-7 human breast cancer cells
T2 sequence (P08842 22-583): T1 sequence (P08842 22-583)
Nature of the data set: Inhibition of steroid sulphatase activity in intact MCF-7 cells. In kind it is cell-based. Conditions: MCF7, read-out: % INHIBITION (mean ± S.D., n = 3) MCF-7 cells. Here is the method: as §1
Steroid sulphatase (Steroid sulphatase is defined as: Steryl Sulphatase EC 3.1.6.2.) activity was measured in vitro using intact MCF-7 human breast cancer cells. This hormone dependent cell line is widely used to study the control of human breast cancer cell growth. […] Cells were maintained in Minimal Essential Medium (MEM) (Flow Laboratories, Irvine, Scotland) containing 20 mM HEPES, 5% foetal bovine serum, 2 mM glutamine, non-essential amino acids and 0.075% sodium bicarbonate. Up to 30 replicate 25 cm^2 tissue culture flasks were seeded with approximately 1×10^5 cells/flask using the above medium. Cells were grown to 80% confluency and medium was changed every third day.
Intact monolayers of MCF-7 cells in triplicate 25 cm^2 tissue culture flasks were washed with Earle's Balanced Salt Solution (EBSS from ICN Flow, High Wycombe, U.K.) and incubated for 3-4 hours at 37° C. with 5 pmol (7×10^5 dpm) [6,7-^3H]oestrone-3-sulphate (specific activity 60 Ci/mmol from New England Nuclear, Boston, Mass., U.S.A.) in serum-free MEM (2.5 ml) together with oestrone-3-sulphamate (11 concentrations: 0; 1 fM; 0.01 pM; 0.1 pM; 1 pM; 0.01 nM; 0.1 nM; 1 nM; 0.01 mM; 0.1 mM; 1 mM). […] A portion (2 ml) of the organic phase was removed, evaporated and the ^3H and ^14C content of the residue determined by scintillation spectrometry. The mass of oestrone-3-sulphate hydrolysed was calculated from the ^3H counts obtained (corrected for the volumes of the medium and organic phase used, and for recovery of [^14C]oestrone added) and the specific activity of the substrate. […] The number of cell nuclei per flask was determined using a Coulter Counter after treating the cell monolayers with Zaponin. […]

Data set [3] relates to uterine growth. Nature of the data set: Measurement of estrogenic activity (uterine weight). In kind it is in vivo. Conditions: rats, oral, such as 0.1 mg/Kg/day for five days; uterine weight/whole body weight×100. Here is the method: Compounds according to the present invention such as Compound 2 (such as at levels of 0.1 mg/Kg/day for five days) are administered orally to rats with another group of animals receiving vehicle only (propylene glycol). At the end of the study uteri are obtained and weighed with the results being expressed as uterine weight/whole body weight×100.

The target in data set [4] is T3, Rat Liver Sulphatase (Rattus norvegicus, UniProt P15589).
T3 construct: from tissue; host or cells: rat liver after oral dosing
T3 sequence (P15589 20-577): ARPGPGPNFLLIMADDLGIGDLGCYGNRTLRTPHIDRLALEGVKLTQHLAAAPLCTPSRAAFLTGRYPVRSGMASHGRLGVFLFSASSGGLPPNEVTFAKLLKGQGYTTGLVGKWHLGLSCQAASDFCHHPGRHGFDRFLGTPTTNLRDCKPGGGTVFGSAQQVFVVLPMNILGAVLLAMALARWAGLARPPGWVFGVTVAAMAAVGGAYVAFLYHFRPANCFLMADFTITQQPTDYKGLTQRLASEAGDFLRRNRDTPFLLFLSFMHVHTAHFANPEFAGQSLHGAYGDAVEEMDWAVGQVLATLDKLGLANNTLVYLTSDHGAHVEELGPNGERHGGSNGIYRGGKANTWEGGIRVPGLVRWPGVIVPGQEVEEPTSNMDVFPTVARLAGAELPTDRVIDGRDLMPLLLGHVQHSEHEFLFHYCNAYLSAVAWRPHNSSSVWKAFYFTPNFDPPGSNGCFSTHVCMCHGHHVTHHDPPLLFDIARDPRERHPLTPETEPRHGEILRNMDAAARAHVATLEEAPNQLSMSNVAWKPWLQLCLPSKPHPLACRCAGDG
The data set can be described thus: In vivo inhibition (rat liver sulphatase). Conditions: 2 mg/kg/d×5 ol, ORAL DOSE. Here is the method: In Vivo Inhibition (Rat Liver Sulphatase)
99.2±0.42%. @ 2 mg/kg/d×5 ol, ORAL DOSE.

For data set [5] the following is noted: cited from earlier work.
Data set [6] deals with T4, rat liver E1-STS (Rattus norvegicus, UniProt P15589).
T4 construct: host or cells: rat liver (in vivo)
T4 sequence (P15589 20-577): T3 sequence (P15589 20-577)
Conditions: administered either orally or subcutaneously; cited from earlier work.

The target of data set [7] is T5, rat liver DHA-STS (Rattus norvegicus, UniProt P15589).
T5 construct: host or cells: rat liver (in vivo)
T5 sequence (P15589 20-577): T3 sequence (P15589 20-577)
Conditions: administered either orally or subcutaneously; cited from earlier work.

For data set [8], the target named is T6, E1-STS enzyme (Homo sapiens, UniProt P08842).
T6 sequence (P08842 22-583): T1 sequence (P08842 22-583)
Conditions: cited from earlier work.

Data set [9] deals with T2, Steroid sulphatase (Steryl Sulphatase EC 3.1.6.2). Particulars: 0.1 μM; cited from earlier work.
Data set [10] concerns memory. Conditions: rats; cited from earlier work.

Usually inhibition stands for the relative decrease from the control value, in per cent. `C[C@]12CCC3c4ccc(OS(N)(=O)=O)cc4CCC3C1CCC2=NO` (stereo partly shown) [Compound 2, Oestrone Oxime-3-O-sulphamate]: the inhibition at 0.0001 µM in [1] (inhibitor concentration 0.1 nM) was determined as 2.9 ± 1.1%. Moreover, the inhibition at 0.001 µM in data set [1] (inhibitor concentration 1 nM) was found to be 8 ± 3.3%. The inhibition at 0.01 µM in data set [1] (inhibitor concentration 10 nM) was determined as 19.3 ± 2.4%. In addition, the inhibition at 0.1 µM in data set [1] (inhibitor concentration 0.1 μM) is 52.3 ± 0.1%; in [2] (inhibitor concentration 0.1 μM), 96 ± 1.8%. Moreover, the results for the inhibition at 1 µM in data set [1] (inhibitor concentration 1 μM) and in data set [2] (inhibitor concentration 1 μM) were 89.8 ± 0.2% and 98 ± 0.6%, respectively. The inhibition at 10 µM came to 98.7 ± 0.1% in [1] (inhibitor concentration 10 μM) and 99 ± 0.2% in [2] (inhibitor concentration 10 μM). Also, the “Estrogenic activity: effect on uterine growth” value in data set [3] is “has an effect on uterine growth”. The “In vivo inhibition (rat liver sulphatase)” value in data set [4] is listed as 99.2±0.42%.
Consider `C[C@]12CC[C@@H]3c4ccc(OS(=O)(=O)O)cc4CC[C@H]3[C@@H]1CCC2=O` [Compound E1S, oestrone sulphate], for which the half-life in blood in data set [5] was 10 to 12 h.
For the compound `CC12CCC3c4ccc(OS(N)(=O)=O)cc4CCC3C1CCC2=O` (stereo not shown) [EMATE, oestrone-3-sulphamate], the “inhibition of rat liver E1-STS activity” value in [6] is listed as 99%. The “inhibition of rat liver DHA-STS activity” value in [7] was 99%. In addition, the “mode of inhibition of the E1-STS enzyme” value in data set [8] was “time- and concentration-dependent manner”. The “inhibition of E1-STS activity in intact MCF-7 cells” value in data set [9] is given as “more than 99%”. Besides, in [10], the memory enhancing effect entry is “memory enhancing effect”.
oestrone-3-N-sulphamate: in [8], the “mode of inhibition of the E1-STS enzyme” value was “weaker non-time-dependent inactivators”.
Consider oestrone-3-S-sulphamate, for which the “mode of inhibition of the E1-STS enzyme” value in data set [8] is recorded as “weaker non-time-dependent inactivators”.
